The target in one series is T1, Recombinant human COX-2 (Homo sapiens, UniProt P35354).
T1 sequence (P35354 18-604): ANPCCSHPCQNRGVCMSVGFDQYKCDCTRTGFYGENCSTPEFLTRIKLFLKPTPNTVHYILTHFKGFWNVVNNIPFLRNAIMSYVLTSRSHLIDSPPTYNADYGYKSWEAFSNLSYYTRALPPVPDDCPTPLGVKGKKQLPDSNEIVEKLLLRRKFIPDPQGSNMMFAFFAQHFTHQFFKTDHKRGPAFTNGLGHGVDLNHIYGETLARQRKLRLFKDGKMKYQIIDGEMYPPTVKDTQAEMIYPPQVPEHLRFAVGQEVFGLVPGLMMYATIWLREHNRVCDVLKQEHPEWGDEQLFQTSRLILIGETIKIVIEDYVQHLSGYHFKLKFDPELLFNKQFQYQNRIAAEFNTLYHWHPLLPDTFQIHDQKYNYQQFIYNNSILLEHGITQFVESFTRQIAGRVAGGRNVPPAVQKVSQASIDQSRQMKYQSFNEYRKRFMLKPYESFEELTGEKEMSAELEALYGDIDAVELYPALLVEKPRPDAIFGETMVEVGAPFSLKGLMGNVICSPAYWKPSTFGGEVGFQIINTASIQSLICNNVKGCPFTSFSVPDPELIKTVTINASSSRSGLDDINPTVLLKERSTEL
Description: Recombinant human COX-2 enzyme assay (PGE2 by EIA). It counts as biochemical. Particulars: preincubation 5 min at 22° C., 2 μM arachidonic acid. As to the method: (§1) Recombinant human enzymes were reconstituted in buffer (100 mM Tris, pH 7.8 at 37° C.) containing 0.5 mM phenol (964 μl total volume). The enzyme preparations were preincubated with vehicle (DMSO) or compounds of the invention in DMSO (1% DMSO in final assay) for 10 min at 25° C. for COX-1 and 5 min at 22° C. for COX-2. Excess hematin was added 1 min prior to initiation of reaction (1.25 μM final hematin) with 4 μM (COX-1) and 2 μM (COX-2) arachidonic acid (sodium salt). The final assay volume was 1.0 ml (100 mM Tris (pH 7.8), 0.5 mM phenol, 1.25 μM hematin and arachidonic acid at 37° C.). The reaction was incubated for 35 s (maximum level of COX-2 accumulation as determined from time course studies), and terminated by addition of 50-60 μl of SnCl2 (1 mg/ml) in 0.1 N HCl. PGE2 production in the presence or absence of the drug was determined by Enzyme Immunoassay (EIA) analysis as described.
(§2) EIA Determination of Prostaglandins
(§3) EIA reagents for prostaglandin determination were purchased from commercial sources. PGE2 levels in enzyme assays were measured against standards prepared in the same milieu using standard methods. The EIA was conducted in 96-well micotiter plates and optical density measured using a microplate reader by standard methods.

The subject of series [1] is human MiaPaCa-2 pancreatic cancer cells. Description: In vitro cellular proliferation assay (SRB). It counts as cell-based. Particulars: MIA PaCa-2, 72 h, 3 days incubation, starting concentration 100 μM, read-out: IC50 (growth inhibition, MiaPaCa-2).
Description: In vitro cell proliferation assays were performed using a 96-well plate based SRB (Sulforhodamine-B) assay. Briefly, human MiaPaCa-2 pancreatic cancer cells were plated in 100 μl medium on day 0 in 96-well microtiter plates (Falcon #3072). On day 1, 10 μl of serial dilutions of each compound (Nine 1:2 dilutions with a starting concentration of 100 μM) were added in triplicates to the plates. As a vehicle control, serial dilutions of DMSO with a starting concentration of 0.5% were also included. After incubation for 3 days at 37° C. in a humidified incubator, cells were fixed in situ with 50 μL of cold trichloroacetic acid (TCA, final concentration at 10% w/v) for 60 minutes. Cells were then washed 5 times with H2O and air-dried. Next, cells were stained with 20 μL of 0.2% SRB in 1% acetic acid and incubated at room temperature for 30 minutes and unbound SRB was removed by washing 5 times with 1% acetic acid and air-dried. Finally, bound SRB stain was solubilized in 50 μL of 50 μM Tris buffer before taking an optical density measurement at 570 nm using a BioTek Synergy™ HT Multiple Detection microplate reader. The growth inhibition data were expressed as the percentage of cell survival calculated from the background corrected absorbance. The surviving fraction of cells was determined by dividing the mean absorbance values of the test agent-treated samples by the mean absorbance values of untreated control.
Another series concerns the target Recombinant human COX-1 (Homo sapiens, UniProt P23219). Description: Recombinant human COX-1 enzyme assay (PGE2 by EIA). It counts as biochemical. As to the method:
as §1, with “Excess hematin was added 1 min prior to initiation of reaction (1.25 μM final hematin) with 4 μM (COX-1) and 2 μM (COX-2) arachidonic acid (sodium salt). The final assay volume was 1.0 ml (100 mM Tris (pH 7.8), 0.5 mM phenol, 1.25 μM hematin and arachidonic acid at 37° C.).” left out
as §2, §3

Recombinant human COX-1, sequence (P23219 24-599): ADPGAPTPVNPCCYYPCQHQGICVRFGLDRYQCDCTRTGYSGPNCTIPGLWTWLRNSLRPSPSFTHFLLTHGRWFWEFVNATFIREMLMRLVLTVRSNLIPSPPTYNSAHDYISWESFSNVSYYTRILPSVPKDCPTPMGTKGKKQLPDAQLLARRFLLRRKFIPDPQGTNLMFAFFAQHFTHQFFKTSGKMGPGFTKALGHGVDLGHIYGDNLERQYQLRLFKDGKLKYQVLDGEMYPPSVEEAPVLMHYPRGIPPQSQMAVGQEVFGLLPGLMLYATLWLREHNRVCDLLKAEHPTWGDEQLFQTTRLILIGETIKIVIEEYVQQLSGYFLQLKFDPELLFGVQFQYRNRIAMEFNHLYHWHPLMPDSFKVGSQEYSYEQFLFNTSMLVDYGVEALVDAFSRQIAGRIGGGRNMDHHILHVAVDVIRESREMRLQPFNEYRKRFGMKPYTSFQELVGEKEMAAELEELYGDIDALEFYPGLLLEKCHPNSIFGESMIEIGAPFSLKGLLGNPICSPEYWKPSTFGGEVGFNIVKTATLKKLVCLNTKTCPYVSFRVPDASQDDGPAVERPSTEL

With `COc1ccc2c(c1)c(CC(=O)NCCC[Si](C)(C)C)c(C)n2C(=O)c1ccc(Cl)cc1` [Example 1, 2-(1-(4-chlorobenzoyl)-5-methoxy-2-methyl-1H-indol-3-yl)-N-(3-(trimethylsilyl)propyl)acetamide], the melting point lay within 97 to 101 °C. Besides, the IC50 on Recombinant human COX-2 is 0.21 µM. The IC50 in series [1] was found to be 6.6 µM. Further, the IC50 at Recombinant human COX-1 is > 10 µM.

As to `COc1ccc2c(c1)c(CC(=O)NC[Si](C)(C)C)c(C)n2C(=O)c1ccc(Cl)cc1` [Example 2, 2-(1-(4-chlorobenzoyl)-5-methoxy-2-methyl-1H-indol-3-yl)-N-((trimethylsilyl)methyl)acetamide], the melting point lay in the range of 163 to 165 °C. In addition, at Recombinant human COX-2, the IC50 worked out at 0.39 µM. In addition, the IC50 in series [1] amounted to 14.3 µM. Further, on Recombinant human COX-1, the IC50 stood at 2.7 µM.

For `COc1ccc2c(c1)c(CC(=O)NC[Si](C)(C)c1ccccc1)c(C)n2C(=O)c1ccc(Cl)cc1` [Example 3, 2-(1-(4-chlorobenzoyl)-5-methoxy-2-methyl-1H-indol-3-yl)-N-((dimethyl(phenyl)silyl)methyl)acetamide], the melting point is 121 to 124 °C. Also, the IC50 at Recombinant human COX-2 came to 0.31 µM. Also, the IC50 in series [1] worked out at 4.8 µM. For the same compound, on Recombinant human COX-1, the IC50 is > 10 µM.

With `CCO[Si](CCCNC(=O)Cc1c(C)n(C(=O)c2ccc(Cl)cc2)c2ccc(OC)cc12)(OCC)OCC` [Example 4, 2-(1-(4-chlorobenzoyl)-5-methoxy-2-methyl-1H-indol-3-yl)-N-(3-(triethoxysilyl)propyl)acetamide], the melting point is 71 to 73 °C (dec.). The IC50 at Recombinant human COX-2 was 0.57 µM. For the same compound, in series [1], the IC50 came to 20 µM. The IC50 at Recombinant human COX-1 was 5 µM.

With `COc1ccc2c(c1)c(CC(=O)O)c(C)n2C(=O)c1ccc(Cl)cc1` [Indomethacin, reference compound], the IC50 in series [1] is > 100 µM.
